Experimental data published in ChEMBL document CHEMBL2074478, “Cisplatin induces renal expression of P-glycoprotein and canalicular multispecific organic anion transporter” (Am J Physiol, 1999).

Columns and labels:
[1] = target: ATP-binding cassette sub-family C member 2 (Rattus norvegicus, UniProt Q63120); test: (§1) TP_TRANSPORTER: Western in vivo, kidney of SD rat; assay type: functional, organism-based, Sprague-Dawley
[2] = target: Multidrug resistance protein 1a (Rattus norvegicus) (UniProt Q6PSM0); test: TP_TRANSPORTER: Western in vivo, liver of SD rat; assay type: functional, organism-based; conditions: Sprague-Dawley
[3] = target: Multidrug resistance protein 1a (Rattus norvegicus) (UniProt Q6PSM0); test: as §1; assay type: functional, organism-based; conditions: Sprague-Dawley
[4] = target: Multidrug resistance protein 1a (Rattus norvegicus) (UniProt Q6PSM0); test: TP_TRANSPORTER: Western in vivo, intestine of SD rat; assay type: functional, organism-based; conditions: Sprague-Dawley

Chain of ATP-binding cassette sub-family C member 2 (Q63120 whole entry): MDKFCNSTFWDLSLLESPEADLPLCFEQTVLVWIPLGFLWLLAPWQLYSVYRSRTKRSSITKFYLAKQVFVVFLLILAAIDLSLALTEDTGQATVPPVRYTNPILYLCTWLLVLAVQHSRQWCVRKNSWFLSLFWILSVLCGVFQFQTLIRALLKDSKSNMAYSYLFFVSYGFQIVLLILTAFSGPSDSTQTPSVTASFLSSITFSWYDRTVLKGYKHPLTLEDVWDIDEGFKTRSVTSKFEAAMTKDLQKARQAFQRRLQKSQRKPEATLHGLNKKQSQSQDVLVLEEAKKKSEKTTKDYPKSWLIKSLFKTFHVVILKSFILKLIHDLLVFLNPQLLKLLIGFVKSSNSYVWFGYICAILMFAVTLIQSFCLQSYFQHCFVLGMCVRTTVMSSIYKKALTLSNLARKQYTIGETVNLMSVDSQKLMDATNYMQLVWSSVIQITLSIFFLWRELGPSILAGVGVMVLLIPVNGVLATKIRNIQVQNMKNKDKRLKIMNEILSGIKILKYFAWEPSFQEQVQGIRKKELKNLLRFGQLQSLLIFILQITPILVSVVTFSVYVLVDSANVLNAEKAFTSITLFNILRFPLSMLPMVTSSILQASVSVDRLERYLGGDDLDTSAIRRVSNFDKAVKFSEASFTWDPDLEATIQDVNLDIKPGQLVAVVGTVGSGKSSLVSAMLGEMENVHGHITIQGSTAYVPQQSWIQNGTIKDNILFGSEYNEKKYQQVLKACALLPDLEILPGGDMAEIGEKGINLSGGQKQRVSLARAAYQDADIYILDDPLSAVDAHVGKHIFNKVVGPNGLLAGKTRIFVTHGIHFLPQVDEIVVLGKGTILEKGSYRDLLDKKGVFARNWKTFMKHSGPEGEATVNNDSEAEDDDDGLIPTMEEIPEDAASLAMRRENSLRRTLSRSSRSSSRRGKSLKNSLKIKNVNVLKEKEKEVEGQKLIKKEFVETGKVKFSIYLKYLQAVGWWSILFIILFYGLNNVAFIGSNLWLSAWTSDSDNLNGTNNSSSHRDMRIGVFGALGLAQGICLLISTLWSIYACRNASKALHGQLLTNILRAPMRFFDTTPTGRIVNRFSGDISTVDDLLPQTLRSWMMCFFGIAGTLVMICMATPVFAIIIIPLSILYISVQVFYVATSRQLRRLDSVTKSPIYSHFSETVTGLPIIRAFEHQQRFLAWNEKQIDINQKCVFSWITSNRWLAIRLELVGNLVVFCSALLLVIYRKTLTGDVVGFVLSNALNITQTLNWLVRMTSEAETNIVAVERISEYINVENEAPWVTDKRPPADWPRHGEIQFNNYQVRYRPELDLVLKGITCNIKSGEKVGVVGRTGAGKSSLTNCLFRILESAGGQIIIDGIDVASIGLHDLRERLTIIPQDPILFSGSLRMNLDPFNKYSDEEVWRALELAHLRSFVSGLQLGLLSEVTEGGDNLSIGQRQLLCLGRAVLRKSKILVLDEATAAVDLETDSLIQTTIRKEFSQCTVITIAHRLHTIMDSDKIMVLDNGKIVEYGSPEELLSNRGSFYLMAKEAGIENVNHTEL

Row | Sequence | Activity [1] | Activity [2] | Activity [3] | Activity [4]
1 | CISPLATIN [listing 1 of 2 here] | inducer [+] |  |  | 
2 | CISPLATIN [listing 2 of 2 here] |  | inducer [+] | inducer [+] | inducer [+]
